tested on: 935938-334-R-J1-PDC complex spheroid viability; assay: Anticancer human tumor 935938-334-R-J1-PDC patient-derived small intestine adenocarcinoma cell line growth inhibition [POLQ]; details: second compound 1 µM; first compound 0.0316 µM; active compounds read low
In short: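 Patient-derived tumour cells were co-cultured with HUVEC and mesenchymal stem cells as multicellular spheroids at 37 °C. They were treated with POLQ inhibitors (novobiocin, ART-558, RP6685) alone or combined with other agents. Top concentrations were at or near clinical Cmax (otherwise 10 microM; SN-38 at 1 microM), decreasing in half-log steps.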
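Note: spheroids exposed to drugs for seven days before viability read; 100% = DMSO vehicle control wells.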

Structure (SMILES)	viability, T/C [%]
C=CC(=O)N1CCN(c2nc(=O)n(-c3c(C)ccnc3C(C)C)c3nc(-c4c(O)cccc4F)c(F)cc23)C(C)C1 (configuration not stated) + Nc1ccc(C#CCN(C(=O)Cc2ncc(C(F)(F)F)cc2C(F)(F)F)c2ccc(F)cc2)nn1	91.4

same assay, conditions: second compound 1 µM; first compound 0.1 µM; active compounds read low

Structure (SMILES)	viability, T/C [%]
Cn1ncnc1[C@H]1c2n[nH]c(=O)c3cc(F)cc(c23)N[C@@H]1c1ccc(F)cc1 + COC1C(OC(N)=O)C(O)C(Oc2ccc3c(O)c(NC(=O)c4ccc(O)c(CC=C(C)C)c4)c(=O)oc3c2C)OC1(C)C	70.6
CCc1c2c(nc3ccc(O)cc13)-c1cc3c(c(=O)n1C2)COC(=O)[C@]3(O)CC + Nc1ccc(C#CCN(C(=O)Cc2ncc(C(F)(F)F)cc2C(F)(F)F)c2ccc(F)cc2)nn1	32.6
COc1ccc([C@@H](O)c2cc(-c3ncnc4cc(N5CCOCC5)ccc34)c(F)cc2Cl)nn1 + Nc1ccc(C#CCN(C(=O)Cc2ncc(C(F)(F)F)cc2C(F)(F)F)c2ccc(F)cc2)nn1	96.6
C=CCn1c(=O)c2cnc(Nc3ccc(N4CCN(C)CC4)cc3)nc2n1-c1cccc(C(C)(C)O)n1 + COC1C(OC(N)=O)C(O)C(Oc2ccc3c(O)c(NC(=O)c4ccc(O)c(CC=C(C)C)c4)c(=O)oc3c2C)OC1(C)C	86.3
O=C(Nc1ccc(O)c(NS(=O)(=O)c2ccc(F)cc2)c1)c1ccc(-c2ccccc2)cc1 + Nc1ccc(C#CCN(C(=O)Cc2ncc(C(F)(F)F)cc2C(F)(F)F)c2ccc(F)cc2)nn1	105
C=CC(=O)N1CCN(c2nc(=O)n(-c3c(C)ccnc3C(C)C)c3nc(-c4c(O)cccc4F)c(F)cc23)C(C)C1 (configuration not stated) + Nc1ccc(C#CCN(C(=O)Cc2ncc(C(F)(F)F)cc2C(F)(F)F)c2ccc(F)cc2)nn1	96.9

same assay, conditions: second compound 1 µM; first compound 0.316 µM; active compounds read low

Structure (SMILES)	viability, T/C [%]
CCc1c2c(nc3ccc(O)cc13)-c1cc3c(c(=O)n1C2)COC(=O)[C@]3(O)CC + Nc1ccc(C#CCN(C(=O)Cc2ncc(C(F)(F)F)cc2C(F)(F)F)c2ccc(F)cc2)nn1	34.4
COc1ccc([C@@H](O)c2cc(-c3ncnc4cc(N5CCOCC5)ccc34)c(F)cc2Cl)nn1 + Nc1ccc(C#CCN(C(=O)Cc2ncc(C(F)(F)F)cc2C(F)(F)F)c2ccc(F)cc2)nn1	106
C=CCn1c(=O)c2cnc(Nc3ccc(N4CCN(C)CC4)cc3)nc2n1-c1cccc(C(C)(C)O)n1 + COC1C(OC(N)=O)C(O)C(Oc2ccc3c(O)c(NC(=O)c4ccc(O)c(CC=C(C)C)c4)c(=O)oc3c2C)OC1(C)C	74.8
O=C(Nc1ccc(O)c(NS(=O)(=O)c2ccc(F)cc2)c1)c1ccc(-c2ccccc2)cc1 + Nc1ccc(C#CCN(C(=O)Cc2ncc(C(F)(F)F)cc2C(F)(F)F)c2ccc(F)cc2)nn1	114
C=CC(=O)N1CCN(c2nc(=O)n(-c3c(C)ccnc3C(C)C)c3nc(-c4c(O)cccc4F)c(F)cc23)C(C)C1 (configuration not stated) + Nc1ccc(C#CCN(C(=O)Cc2ncc(C(F)(F)F)cc2C(F)(F)F)c2ccc(F)cc2)nn1	98.4

same assay, conditions: second compound 1 µM; first compound 1 µM; active compounds read low

Structure (SMILES)	viability, T/C [%]
CCc1c2c(nc3ccc(O)cc13)-c1cc3c(c(=O)n1C2)COC(=O)[C@]3(O)CC + Nc1ccc(C#CCN(C(=O)Cc2ncc(C(F)(F)F)cc2C(F)(F)F)c2ccc(F)cc2)nn1	30.1
COc1ccc([C@@H](O)c2cc(-c3ncnc4cc(N5CCOCC5)ccc34)c(F)cc2Cl)nn1 + Nc1ccc(C#CCN(C(=O)Cc2ncc(C(F)(F)F)cc2C(F)(F)F)c2ccc(F)cc2)nn1	82.3
C=CCn1c(=O)c2cnc(Nc3ccc(N4CCN(C)CC4)cc3)nc2n1-c1cccc(C(C)(C)O)n1 + COC1C(OC(N)=O)C(O)C(Oc2ccc3c(O)c(NC(=O)c4ccc(O)c(CC=C(C)C)c4)c(=O)oc3c2C)OC1(C)C	30.4
O=C(Nc1ccc(O)c(NS(=O)(=O)c2ccc(F)cc2)c1)c1ccc(-c2ccccc2)cc1 + Nc1ccc(C#CCN(C(=O)Cc2ncc(C(F)(F)F)cc2C(F)(F)F)c2ccc(F)cc2)nn1	126
C=CC(=O)N1CCN(c2nc(=O)n(-c3c(C)ccnc3C(C)C)c3nc(-c4c(O)cccc4F)c(F)cc23)C(C)C1 (configuration not stated) + Nc1ccc(C#CCN(C(=O)Cc2ncc(C(F)(F)F)cc2C(F)(F)F)c2ccc(F)cc2)nn1	134

same assay, conditions: second compound 1 µM; first compound 3.16 µM; active compounds read low

Structure (SMILES)	viability, T/C [%]
COc1ccc([C@@H](O)c2cc(-c3ncnc4cc(N5CCOCC5)ccc34)c(F)cc2Cl)nn1 + Nc1ccc(C#CCN(C(=O)Cc2ncc(C(F)(F)F)cc2C(F)(F)F)c2ccc(F)cc2)nn1	70.1
O=C(Nc1ccc(O)c(NS(=O)(=O)c2ccc(F)cc2)c1)c1ccc(-c2ccccc2)cc1 + Nc1ccc(C#CCN(C(=O)Cc2ncc(C(F)(F)F)cc2C(F)(F)F)c2ccc(F)cc2)nn1	112
C=CC(=O)N1CCN(c2nc(=O)n(-c3c(C)ccnc3C(C)C)c3nc(-c4c(O)cccc4F)c(F)cc23)C(C)C1 (configuration not stated) + Nc1ccc(C#CCN(C(=O)Cc2ncc(C(F)(F)F)cc2C(F)(F)F)c2ccc(F)cc2)nn1	115

same assay, conditions: second compound 1 µM; first compound 10 µM; active compounds read low

Structure (SMILES)	viability, T/C [%]
COc1ccc([C@@H](O)c2cc(-c3ncnc4cc(N5CCOCC5)ccc34)c(F)cc2Cl)nn1 + Nc1ccc(C#CCN(C(=O)Cc2ncc(C(F)(F)F)cc2C(F)(F)F)c2ccc(F)cc2)nn1	28.5
O=C(Nc1ccc(O)c(NS(=O)(=O)c2ccc(F)cc2)c1)c1ccc(-c2ccccc2)cc1 + Nc1ccc(C#CCN(C(=O)Cc2ncc(C(F)(F)F)cc2C(F)(F)F)c2ccc(F)cc2)nn1	59.4
C=CC(=O)N1CCN(c2nc(=O)n(-c3c(C)ccnc3C(C)C)c3nc(-c4c(O)cccc4F)c(F)cc23)C(C)C1 (configuration not stated) + Nc1ccc(C#CCN(C(=O)Cc2ncc(C(F)(F)F)cc2C(F)(F)F)c2ccc(F)cc2)nn1	138

same assay, conditions: second compound 3.16 µM; first compound 0.000316 µM; active compounds read low

Structure (SMILES)	viability, T/C [%]
Cn1ncnc1[C@H]1c2n[nH]c(=O)c3cc(F)cc(c23)N[C@@H]1c1ccc(F)cc1 + COC1C(OC(N)=O)C(O)C(Oc2ccc3c(O)c(NC(=O)c4ccc(O)c(CC=C(C)C)c4)c(=O)oc3c2C)OC1(C)C	101

same assay, conditions: second compound 3.16 µM; first compound 0.001 µM; active compounds read low

Structure (SMILES)	viability, T/C [%]
Cn1ncnc1[C@H]1c2n[nH]c(=O)c3cc(F)cc(c23)N[C@@H]1c1ccc(F)cc1 + COC1C(OC(N)=O)C(O)C(Oc2ccc3c(O)c(NC(=O)c4ccc(O)c(CC=C(C)C)c4)c(=O)oc3c2C)OC1(C)C	102

same assay, conditions: second compound 3.16 µM; first compound 0.00316 µM; active compounds read low

Structure (SMILES)	viability, T/C [%]
Cn1ncnc1[C@H]1c2n[nH]c(=O)c3cc(F)cc(c23)N[C@@H]1c1ccc(F)cc1 + COC1C(OC(N)=O)C(O)C(Oc2ccc3c(O)c(NC(=O)c4ccc(O)c(CC=C(C)C)c4)c(=O)oc3c2C)OC1(C)C	84.3
CCc1c2c(nc3ccc(O)cc13)-c1cc3c(c(=O)n1C2)COC(=O)[C@]3(O)CC + Nc1ccc(C#CCN(C(=O)Cc2ncc(C(F)(F)F)cc2C(F)(F)F)c2ccc(F)cc2)nn1	93.2
C=CCn1c(=O)c2cnc(Nc3ccc(N4CCN(C)CC4)cc3)nc2n1-c1cccc(C(C)(C)O)n1 + COC1C(OC(N)=O)C(O)C(Oc2ccc3c(O)c(NC(=O)c4ccc(O)c(CC=C(C)C)c4)c(=O)oc3c2C)OC1(C)C	130

same assay, conditions: second compound 3.16 µM; first compound 0.01 µM; active compounds read low

Structure (SMILES)	viability, T/C [%]
Cn1ncnc1[C@H]1c2n[nH]c(=O)c3cc(F)cc(c23)N[C@@H]1c1ccc(F)cc1 + COC1C(OC(N)=O)C(O)C(Oc2ccc3c(O)c(NC(=O)c4ccc(O)c(CC=C(C)C)c4)c(=O)oc3c2C)OC1(C)C	84.6
CCc1c2c(nc3ccc(O)cc13)-c1cc3c(c(=O)n1C2)COC(=O)[C@]3(O)CC + Nc1ccc(C#CCN(C(=O)Cc2ncc(C(F)(F)F)cc2C(F)(F)F)c2ccc(F)cc2)nn1	51.8
C=CCn1c(=O)c2cnc(Nc3ccc(N4CCN(C)CC4)cc3)nc2n1-c1cccc(C(C)(C)O)n1 + COC1C(OC(N)=O)C(O)C(Oc2ccc3c(O)c(NC(=O)c4ccc(O)c(CC=C(C)C)c4)c(=O)oc3c2C)OC1(C)C	96.8

same assay, conditions: second compound 3.16 µM; first compound 0.0316 µM; active compounds read low

Structure (SMILES)	viability, T/C [%]
Cn1ncnc1[C@H]1c2n[nH]c(=O)c3cc(F)cc(c23)N[C@@H]1c1ccc(F)cc1 + COC1C(OC(N)=O)C(O)C(Oc2ccc3c(O)c(NC(=O)c4ccc(O)c(CC=C(C)C)c4)c(=O)oc3c2C)OC1(C)C	61.7
